According to US11072599B2, “Pyrazole compounds and uses thereof” (Yissum Research Development Company of the Hebrew …, priority 2017, dated 2021):

Tested on: RKO colorectal cells
Assay: Dose-response compound screen in RKO cells (Western blot, indicators of CKIα inhibition)
Type: cell-based
Details: 16 hours at 37° C., 0.167-1.5 μM or 0.11-1 μM, ImageJ, 1 = mock (DMSO)-treated cells
Experimental: RKO cells were incubated for 16 hours at 37° C. with indicated concentrations of the compounds, or with the vehicle (DMSO) alone (−) and analyzed by Western Blot. Shown are Western Blot signals of β-catenin and p53 stabilization and phosphorylation of H2AX (γH2AX), a marker of DNA damage.
RKO colorectal cells were incubated with serial dilutions of each of the compounds (at a concentration range of 0.167-1.5 μM or 0.11-1 μM in DMSO) for 16 hours at 37° C. Cells were washed with PBS and cell pellets were incubated with ice cold protein lysis buffer containing protease inhibitor cocktail ( 1/200; Calbiochem) and phosphatase inhibitors (20 mM p-nitrophenyl phosphate (PNPP), 20 mM β-glycerophosphate and 300 nM okadaic acid). Western blot (WB) analysis was performed by means of standard techniques. Blots were incubated with antibodies detecting β-catenin ( 1/2,500; BD Transduction), p53 (DO-1&1801 hybridoma mix; dilution of 1:20 of supernatants from each), CKIα (C-19; 1/1,000; Santa Cruz Biotechnology) and phospho-histone H2AX (S139; 1/1,000; Millipore). Secondary antibodies were HRP-linked goat anti-mouse, goat anti-rabbit and rabbit anti-goat antibodies (all 1/10,000; Jackson). Blots were developed using ECL (GE Healthcare). Signal intensities corresponding to β-catenin and p53 stabilization and phosphorylation of H2AX (γH2AX—a marker of DNA damage)-indicators of CKIα inhibition (Elyada et al., Nature […]), were analyzed by the ImageJ software. Relative signal intensities are depicted in Table 1 (see also in FIG. 1), where values of 1 correspond to signals of mock (DMSO)-treated cells.

Row | Structure (SMILES) | H2AX phosphorylation (γH2AX, relative signal intensity) | p53 stabilization (relative signal intensity) | β-Catenin stabilization (relative signal intensity)
1 | Cc1ccnn1[C@H]1CC[C@H](Nc2ncc(Cl)c(-c3cnn(C)c3CC3CC3)n2)CC1 [A102] | 1 | 1 | 4
2 | Cn1ncc(-c2cc(N[C@H]3CC[C@H](N)CC3)ncn2)c1CC1CC1 [A106, (1r,4r)-N1-(6-(5-(cyclopropylmethyl)-1-methyl-1H-pyrazol-4-yl)pyrimidin-4-yl)cyclohexane-1,4-diamine] | 1 | 1 | 9
3 | Cn1ncc(-c2cc(N[C@H]3CC[C@H](N)CC3)nc(N)n2)c1CC1CC1 [A107, N4-((1r,4r)-4-aminocyclohexyl)-6-(5-(cyclopropylmethyl)-1-methyl-1H-pyrazol-4-yl)pyrimidine-2,4-diamine] | 1 | 2 | 4
4 | Cn1ncc(-c2cccc(N[C@H]3CC[C@H](N)CC3)n2)c1CC1CC1 [A105, (1r,4r)-N1-(6-(5-(cyclopropylmethyl)-1-methyl-1H-pyrazol-4-yl)pyridin-2-yl)cyclohexane-1,4-diamine] | 1 | 2 | 5
5 | Cn1ncc(-c2cc(O)nc(N[C@H]3CC[C@H](N)CC3)n2)c1CC1CC1 [A108, 2-(((1r,4r)-4-aminocyclohexyl)amino)-6-(5-(cyclopropylmethyl)-1-methyl-1H-pyrazol-4-yl)pyrimidin-4-ol] | 1 | 1 | 9
6 | Cn1ncc(-c2cc(N[C@H]3CC[C@H](N)CC3)ncc2Cl)c1CC1CC1 [A104, (1r,4r)-N1-(5-chloro-4-(5-(cyclopropylmethyl)-1-methyl-1H-pyrazol-4-yl)pyridin-2-yl)cyclohexane-1,4-diamine] | 20 | 20 | 9
